In brackets after ≈: the same amount, converted by molar mass. Square brackets hold non-standard residues; d marks the D form. Peptide text beside a SMILES is read from it. βAla = NCCC(=O)O
Legend:
[1] = test system: Pseudomonas aeruginosa; test: Antibacterial activity against Pseudomonas aeruginosa ATCC 27853 assessed as reduction in bacterial growth incubated for 18 to 20 hrs by Mueller Hinton broth dilution method; format: functional; details: time 18-20 hrs
[2] = test system: Bacillus subtilis; test: Antibacterial activity against Bacillus subtilis ATCC 23857 assessed as reduction in bacterial growth incubated for 18 to 20 hrs by Mueller Hinton broth dilution method; format: functional; details: time 18-20 hrs
[3] = test system: Erythrocyte; test: Hemolytic activity in mouse Red blood cells incubated for 1 hr by microplate reader assay; format: toxicity, cell-based; details: erythrocyte, 1 h
[4] = test system: Staphylococcus aureus; test: Antibacterial activity against Staphylococcus aureus ATCC 25923 assessed as reduction in bacterial growth incubated for 18 to 20 hrs by Mueller Hinton broth dilution method; format: functional; details: time 18-20 hrs
[5] = test system: Escherichia coli; test: Antibacterial activity against Escherichia coli ATCC 25922 assessed as reduction in bacterial growth incubated for 18 to 20 hrs by Mueller Hinton broth dilution method; format: functional; details: time 18-20 hrs
[6] = test system: Klebsiella pneumoniae; test: Antimicrobial activity against Klebsiella pneumoniae assessed as reduction in bacterial growth incubated for 18 to 20 hrs by Mueller-Hinton broth based microdilution method; format: functional; details: time 18-20 hrs
[7] = test system: Staphylococcus aureus; test: Antibacterial activity against Staphylococcus aureus ATCC 25923 assessed as reduction in bacterial cell growth incubated for 18 hrs by two fold serial microdilution method; format: functional
[8] = test system: Staphylococcus epidermidis; test: Antibacterial activity against Staphylococcus epidermidis ATCC 12228 assessed as reduction in bacterial cell growth incubated for 18 hrs by two fold serial microdilution method; format: functional
[9] = test system: Erythrocyte; test: Hemolytic activity in mouse Red blood cells incubated for 1 hr; format: toxicity, cell-based
[10] = test system: Escherichia coli; test: Antibacterial activity against Escherichia coli ATCC 25922 assessed as reduction in bacterial cell growth incubated for 18 hrs by two fold serial microdilution method; format: functional
[11] = test system: Klebsiella pneumoniae; test: Antibacterial activity against Klebsiella pneumoniae ATCC 700603 assessed as reduction in bacterial cell growth incubated for 18 hrs by two fold serial microdilution method; format: functional
[12] = test system: Acinetobacter baumannii; test: Antibacterial activity against Acinetobacter baumannii ATCC 19606 assessed as inhibition in bacterial growth incubated for 20 to 24 hrs by CLSI based broth microdilution method; format: functional; details: time 20-24 hrs
[13] = test system: Pseudomonas aeruginosa; test: Antibacterial activity against Pseudomonas aeruginosa ATCC 27853 assessed as reduction in bacterial cell growth incubated for 18 hrs by two fold serial microdilution method; format: functional

| SMILES | MIC [1] | MIC [2] | HC10 [3] | MIC [4] | MIC [5] | MIC [6] | MIC [7] | MIC [8] | HC10 [9] | MIC [10] | MIC [11] | MIC [12] | MIC [13] |
| --- | --- | --- | --- | --- | --- | --- | --- | --- | --- | --- | --- | --- | --- |
| CC[C@H](C)[C@H](NC(=O)[C@H](CCCNC(=N)N)NC(=O)[C@@H](CCCCN)NC(=O)[C@H](CC(C)C)NC(=O)[C@H](CC(C)C)NC(=O)CN)C(=O)N[C@H](CCCCN)C(=O)N[C@H](C(=O)N[C@@H](CC(C)C)C(=O)N[C@@H](CC(C)C)C(N)=O)[C@@H](C)O | 64 µM (≈ 73.8 µg/mL) | 64 µM (≈ 73.8 µg/mL) | > 300 µM | > 256 µM | 256 µM (≈ 295 µg/mL) | 256 µM (≈ 295 µg/mL) |  |  |  |  |  |  |  |
| CC[C@H](C)[C@H](NC(=O)[C@H](CCCNC(=N)N)NC(=O)[C@H](CCCCN)NC(=O)[C@H](CC(C)C)NC(=O)[C@H](CC(C)C)NC(=O)CN)C(=O)NCCC(=O)N[C@H](C(=O)N[C@@H](CC(C)C)C(=O)N[C@@H](CC(C)C)C(N)=O)[C@@H](C)O (H-GLLKRI[βAla]TLL-NH2) |  |  |  |  |  |  | 64 µM (≈ 70.2 µg/mL) | 32 µM (≈ 35.1 µg/mL) | > 256 µM | 64 µM (≈ 70.2 µg/mL) | 128 µM (≈ 140 µg/mL) | > 128 µM | 32 µM (≈ 35.1 µg/mL) |
| CC(C)C[C@H](NC(=O)[C@H](CC(C)C)NC(=O)[C@@H](NC(=O)[C@H](CCCCN)NC(=O)CCNC(=O)[C@H](CCCNC(=N)N)NC(=O)[C@H](CCCCN)NC(=O)[C@H](CC(C)C)NC(=O)[C@H](CC(C)C)NC(=O)CN)[C@@H](C)O)C(N)=O (H-GLLKR[βAla]KTLL-NH2) |  |  |  |  |  |  | > 128 µM | > 128 µM | > 256 µM | > 128 µM | > 128 µM | > 128 µM | > 128 µM |
| CC[C@H](C)[C@H](NC(=O)[C@H](CCCNC(=N)N)NC(=O)[C@H](CCCCN)NC(=O)CCNC(=O)[C@H](CC(C)C)NC(=O)CN)C(=O)N[C@@H](CCCCN)C(=O)N[C@H](C(=O)N[C@@H](CC(C)C)C(=O)N[C@@H](CC(C)C)C(N)=O)[C@@H](C)O (H-GL[βAla]KRIKTLL-NH2) |  |  |  |  |  |  | > 128 µM | > 128 µM | > 256 µM | > 128 µM | > 128 µM | > 128 µM | 32 µM (≈ 35.6 µg/mL) |
| CC[C@H](C)[C@H](NC(=O)[C@H](CCCNC(=N)N)NC(=O)[C@H](CCCCN)NC(=O)[C@H](CC(C)C)NC(=O)[C@H](CC(C)C)NC(=O)CCN)C(=O)N[C@@H](CCCCN)C(=O)NCCC(=O)N[C@@H](CC(C)C)C(=O)N[C@@H](CC(C)C)C(N)=O (H-[βAla]LLKRIK[βAla]LL-NH2) |  |  |  |  |  |  | 128 µM (≈ 146 µg/mL) | 64 µM (≈ 72.8 µg/mL) | > 256 µM | 64 µM (≈ 72.8 µg/mL) | 64 µM (≈ 72.8 µg/mL) | > 128 µM | 64 µM (≈ 72.8 µg/mL) |
| CC[C@H](C)[C@H](NC(=O)[C@H](CCCNC(=N)N)NC(=O)[C@H](CCCCN)NC(=O)[C@H](CC(C)C)NC(=O)[C@H](CC(C)C)NC(=O)CN)C(=O)N[C@@H](CCCCN)C(=O)N[C@H](C(=O)NCCC(=O)N[C@@H](CC(C)C)C(N)=O)[C@@H](C)O (H-GLLKRIKT[βAla]L-NH2) |  |  |  |  |  |  | > 128 µM | > 128 µM | > 256 µM | > 128 µM | > 128 µM | > 128 µM | > 128 µM |
| CC[C@H](C)[C@H](NC(=O)[C@@H](CCCNC(=N)N)NC(=O)[C@H](CCCCN)NC(=O)[C@H](CC(C)C)NC(=O)[C@H](CC(C)C)NC(=O)CN)C(=O)N[C@H](CCCCN)C(=O)N[C@H](C(=O)N[C@@H](CC(C)C)C(=O)N[C@@H](CC(C)C)C(N)=O)[C@@H](C)O | 32 µM (≈ 36.9 µg/mL) | 32 µM (≈ 36.9 µg/mL) | > 300 µM | > 256 µM | 256 µM (≈ 295 µg/mL) | 256 µM (≈ 295 µg/mL) |  |  |  |  |  |  |  |
| CC[C@H](C)[C@H](NC(=O)[C@@H](CCCNC(=N)N)NC(=O)[C@H](CCCCN)NC(=O)[C@H](CC(C)C)NC(=O)[C@H](CC(C)C)NC(=O)CN)C(=O)N[C@@H](CCCCN)C(=O)N[C@@H](C(=O)N[C@@H](CC(C)C)C(=O)N[C@@H](CC(C)C)C(N)=O)[C@H](C)O | 128 µM (≈ 148 µg/mL) | 32 µM (≈ 36.9 µg/mL) | > 300 µM | > 256 µM | 256 µM (≈ 295 µg/mL) | > 256 µM |  |  |  |  |  |  |  |
| CC[C@H](C)[C@H](NC(=O)[C@H](CCCNC(=N)N)NC(=O)[C@H](CCCCN)NC(=O)[C@H](CC(C)C)NC(=O)[C@H](CC(C)C)NC(=O)CN)C(=O)N[C@@H](CCCCN)C(=O)N[C@H](C(=O)N[C@@H](CC(C)C)C(=O)NCCC(N)=O)[C@@H](C)O (H-GLLKRIKTL[βAla]-NH2) |  |  |  |  |  |  | > 128 µM | > 128 µM | > 256 µM | > 128 µM | > 128 µM | > 128 µM | > 128 µM |

Reference: ChEMBL document CHEMBL5608163, “Structure modification of anoplin for fighting resistant bacteria” (Eur J Med Chem, 2024)
